In patent publication US20260248788A1, “NEW COMPOUNDS AND TREATMENT OF RENAL CELL CARCINOMA” (TRUSTLIFE THERAPEUTICS INC., priority 2023, published 2026):
Entries after “also recorded” stand apart in the source; their conditions may differ.

How the values were obtained:
Assay type in all cases: cell-based, human
Caki-1 cells [1] = experiment: LDH cytotoxicity assay; settings: 1 day; for cytotoxicity (LDH assay): Caki-1, 10 μM; for Ranking, Cytotoxicity (%): top five, LDH assay, 10 μM, rank 1 = highest
Description: (§1) Cell culture 2: Caki-1 was purchased from CLS Cell Lines Service (Germany). The cells were maintained in McCoy's 5A (modified) medium (16600082, Thermo Fisher Scientific, USA) and supplemented with 10% fetal bovine serum (FBS, F7524, Sigma-Aldrich), 1% Penicillin/Streptomycin (P4333, Sigma-Aldrich).
Lactate dehydrogenase (LDH) assay was performed with LDH Assay Kit (ab65393). […] 20 μl of media was analysed with LDH Assay Kit as per manufacturer's instruction.

Caki-1 cells [2] = experiment: MTT cell viability assay; settings: for reduction in cell viability (MTT) / effect on cell viability (MTT): 1 day; for cell viability of treated cells (summary statement): concentration not given
Description: as §1
The cytotoxic effects of the TG-101209 and its alternatives on the Caki-1 cells were tested by MTT (Thiazolyl Blue Tetrazolium Bromide) method. 1.5×10^4 cells were seeded per well in a 96-well plate in 100 μL growth media. […] After the incubation period, 5 mg/ml MTT (M2128, Sigma-Aldrich) solution in PBS (10 μL) was added to each well. After 1 hour, the MTT solution and all media were removed from the wells. 100 μl of DMSO was added and mixed to dissolve the formazan crystals. Cell viability was analysed by measuring the absorbance of the dissolved formazan at a wavelength of 570 nm with a microplate reader (Hidex Sense Beta Plus).

BUB1B = experiment: Western blot of BUB1B in Caki-1 cells treated with TG-101209 derivatives; settings: for expression levels of BUB1B (Western blot): Caki-1 cells, 5 μM of target drug, 1 day (FIG. 41, 56); for expression levels of BUB1B (summary statement): concentration not given
Description: as §1
The target drugs developed as alternatives to TG-101209, were dissolved in 0.1% DMSO (41639, Sigma-Aldrich). Caki-1 cells from cell culture 2 were seeded in a 6-well plate at 3×10^5 cells per well. […]
The cells were washed with PBS solution and then lysed with CelLytic M (C2978, Sigma-Aldrich) lysis buffer containing protease inhibitors (11836170001, Roche). The cell lysates were centrifuged at 12 000 rpm for 10 min and supernatants were collected. Protein Assay Dye Reagent (5000006, Bio-Rad) was used for the determination of protein concentration. The absorbance of the proteins was measured spectrophotometrically at 595 nm by a microplate reader (Hidex Sense Beta Plus). Protein electrophoresis was performed using Mini-PROTEAN® TGX™ Precast Gels (4561086, Bio-Rad) and then the separated proteins were transferred to a Trans-Blot Turbo Mini 0.2 μm PVDF Transfer Packs membrane (1704158, Bio-Rad) by using Trans-Blot® Turbo™ Transfer System (Bio-Rad). The membrane was blocked with 5% skim milk for 30 min at 4° C. with gentle rocking. After blocking, the membrane was treated with primary antibodies: Anti-BUB1B (HPA008419, Human Protein Atlas, Sweden) and Anti-Beta actin (ab8227, Abcam) as a loading control overnight at 4° C. on a rocking platform. After the treatment of primary antibodies, the membrane was washed three times with TBS-T buffer (A09-7500-100, Medicago). Then, Goat anti-Rabbit IgG-HRP (ab205718, Abcam) was treated as the secondary antibody for 30 min at 4° C. with gentle rocking.

Structure (SMILES): Cc1cnc(Nc2ccc(C(=O)Nc3cccc(Br)c3)cc2)nc1Nc1cccc(S(=O)(=O)NC(C)(C)C)c1 [Compound M101B, N-(3-bromophenyl)-4-((4-((3-(N-(tert-butyl)sulfamoyl)phenyl)amino)-5-methylpyrimidin-2-yl)amino)benzamide]
- cytotoxicity (LDH assay) (Caki-1 cells [1]; first batch): exhibited cytotoxicity
- Ranking, Cytotoxicity (%) (Caki-1 cells [1]): 3
- reduction in cell viability (MTT) (Caki-1 cells [2]; Caki-1, 5 μM, first batch): the greatest
- cell viability of treated cells (summary statement) (Caki-1 cells [2]): particularly low cell viability; also recorded: significantly reduced cell viability

Structure (SMILES): Cc1cnc(Nc2ccc(C(=O)Nc3ccc(OCCCN4CCOCC4)cc3)cc2)nc1Nc1cccc(S(=O)(=O)NC(C)(C)C)c1 [Compound M101G, 4-((4-((3-(N-(tert-butyl)sulfamoyl)phenyl)amino)-5-methylpyrimidin-2-yl)amino)-N-(4-(3-morpholinopropoxy)phenyl)benzamide]
- reduction in cell viability (MTT) (Caki-1 cells [2]; Caki-1, 5 μM, first batch): the greatest
- cell viability of treated cells (summary statement) (Caki-1 cells [2]): particularly low cell viability; also recorded: significantly reduced cell viability

Structure (SMILES): Cc1cnc(Nc2ccc(N3CCN(C)CC3)cc2)nc1Nc1cccc(S(=O)(=O)Nc2ccccc2)c1 [Compound M3, 3-((5-methyl-2-((4-(4-methylpiperazin-1-yl)phenyl)amino)pyrimidin-4-yl)amino)-N-phenylbenzenesulfonamide]
- expression levels of BUB1B (Western blot) (BUB1B): significantly lower the expression levels of BUB1B

Structure (SMILES): Cc1cnc(Nc2ccc(C(=O)Nc3ccc(N4CCN(C)CC4)cc3)cc2)nc1Nc1ccc(N2CCN(C)CC2)cc1 [ME3, 4-((5-methyl-4-((4-(4-methylpiperazin-1-yl)phenyl)amino)pyrimidin-2-yl)amino)-N-(4-(4-methylpiperazin-1-yl)phenyl)benzamide]
- reduction in cell viability (MTT) (Caki-1 cells [2]; Caki-1, 10 μM, second batch): the greatest
- cell viability of treated cells (summary statement) (Caki-1 cells [2]): particularly low cell viability; also recorded: significantly reduced cell viability

Structure (SMILES): COc1cc(Nc2ncc(C)c(Nc3cccc(S(=O)(=O)N4CCOCC4)c3)n2)cc(OC)c1OC [Compound M115, 5-methyl-N4-(3-(morpholinosulfonyl)phenyl)-N2-(3,4,5-trimethoxyphenyl)pyrimidine-2,4-diamine]
- expression levels of BUB1B (summary statement) (BUB1B): reduction of the expression levels of BUB1B
- cell viability of treated cells (summary statement) (Caki-1 cells [2]): especially low cell viability; also recorded: reduced cell viability

Structure (SMILES): COc1cc(Nc2ncc(C)c(Nc3ccc(N4CCN(C)CC4)cc3)n2)cc(OC)c1OC [Compound M119, 5-methyl-N4-(4-(4-methylpiperazin-1-yl)phenyl)-N2-(3,4,5-trimethoxyphenyl)pyrimidine-2,4-diamine]
- expression levels of BUB1B (summary statement) (BUB1B): reduction of the expression levels of BUB1B
- cell viability of treated cells (summary statement) (Caki-1 cells [2]): especially low cell viability; also recorded: significantly reduced cell viability

Structure (SMILES): Cc1cnc(Nc2ccc(C(=O)Nc3ccc(Oc4ccc(Cl)cc4)nc3)cc2)nc1Nc1cccc(S(=O)(=O)NC(C)(C)C)c1 [Compound M101V, 4-((4-((3-(N-(tert-butyl)sulfamoyl)phenyl)amino)-5-methylpyrimidin-2-yl)amino)-N-(6-(4-chlorophenoxy)pyridin-3-yl)benzamide]
- cytotoxicity (LDH assay) (Caki-1 cells [1]; second batch): greatest cytotoxicity

Structure (SMILES): Cc1cn(-c2cc(Nc3ncc(C)c(Nc4cccc(S(=O)(=O)NC(C)(C)C)c4)n3)cc(C(F)(F)F)c2)cn1 [Compound M64, N-(tert-butyl)-3-((5-methyl-2-((3-(4-methyl-1H-imidazol-1-yl)-5-(trifluoromethyl)phenyl)amino)pyrimidin-4-yl)amino)benzenesulfonamide]
- expression levels of BUB1B (Western blot) (BUB1B): significantly lower the expression levels of BUB1B

Structure (SMILES): Cc1ccc(Nc2ncc(C)c(Nc3ccc(N4CCN(C)CC4)cc3)n2)cc1S(N)(=O)=O [Compound M123, 2-methyl-5-((5-methyl-4-((4-(4-methylpiperazin-1-yl)phenyl)amino)pyrimidin-2-yl)amino)benzenesulfonamide]
- expression levels of BUB1B (summary statement) (BUB1B): reduction of the expression levels of BUB1B
- cell viability of treated cells (summary statement) (Caki-1 cells [2]): particularly low cell viability; also recorded: significantly reduced cell viability

Structure (SMILES): Cc1ccc(Nc2ncc(C)c(Nc3cccc(S(=O)(=O)NC(C)(C)C)c3)n2)cc1Nc1nc(-c2cccnc2)cs1 [Compound M88, N-(tert-butyl)-3-((5-methyl-2-((4-methyl-3-((4-(pyridin-3-yl)thiazol-2-yl)amino)phenyl)amino)pyrimidin-4-yl)amino)benzenesulfonamide]
- expression levels of BUB1B (Western blot) (BUB1B): significantly lower the expression levels of BUB1B
- expression levels of BUB1B (summary statement) (BUB1B): reduction of the expression levels of BUB1B
- IC50 (Caki-1 cells [2]; Homo sapiens, 24 h, Caki-1, 1 day (FIG. 43), text: after treatment with 5 μM): > 3000 nM
- cell viability of treated cells (summary statement) (Caki-1 cells [2]): especially low cell viability; also recorded: significantly reduced cell viability

Structure (SMILES): COc1cc(NC(=O)c2ccc(Nc3ncc(C)c(Nc4cccc(S(=O)(=O)NC(C)(C)C)c4)n3)cc2)cc(OC)c1 [Compound M101A, 4-((4-((3-(N-(tert-butyl)sulfamoyl)phenyl)amino)-5-methylpyrimidin-2-yl)amino)-N-(3,5-dimethoxyphenyl)benzamide]
- cytotoxicity (LDH assay) (Caki-1 cells [1]; first batch): exhibited cytotoxicity
- Ranking, Cytotoxicity (%) (Caki-1 cells [1]): 5
- reduction in cell viability (MTT) (Caki-1 cells [2]; Caki-1, 5 μM, first batch): the greatest
- effect on cell viability (MTT) (Caki-1 cells [2]; Caki-1, 10 μM, first batch): most profound effect
- cell viability of treated cells (summary statement) (Caki-1 cells [2]): particularly low cell viability; also recorded: significantly reduced cell viability

Structure (SMILES): Cc1cnc(Nc2ccc(C(=O)Nc3ccc4ncccc4c3)cc2)nc1Nc1cccc(S(=O)(=O)NC(C)(C)C)c1 [Compound M101H, 4-((4-((3-(N-(tert-butyl)sulfamoyl)phenyl)amino)-5-methylpyrimidin-2-yl)amino)-N-(quinolin-6-yl)benzamide]
- reduction in cell viability (MTT) (Caki-1 cells [2]; Caki-1, 5 μM, first batch): the greatest
- cell viability of treated cells (summary statement) (Caki-1 cells [2]): particularly low cell viability; also recorded: significantly reduced cell viability

Structure (SMILES): Cc1ccc(NC(=O)c2ccc(Nc3ncc(C)c(Nc4cccc(S(=O)(=O)NC(C)(C)C)c4)n3)cc2)cc1S(N)(=O)=O [Compound M101Q, 4-((4-((3-(N-(tert-butyl)sulfamoyl)phenyl)amino)-5-methylpyrimidin-2-yl)amino)-N-(4-methyl-3-sulfamoylphenyl)benzamide]
- cytotoxicity (LDH assay) (Caki-1 cells [1]; second batch): greatest cytotoxicity

Structure (SMILES): Cc1cnc(Nc2ccc(C(=O)Nc3cccc(S(=O)(=O)N4CCOCC4)c3)cc2)nc1Nc1cccc(S(=O)(=O)NC(C)(C)C)c1 [Compound M101F, 4-((4-((3-(N-(tert-butyl)sulfamoyl)phenyl)amino)-5-methylpyrimidin-2-yl)amino)-N-(3-(morpholinosulfonyl)phenyl)benzamide]
- cytotoxicity (LDH assay) (Caki-1 cells [1]; first batch): exhibited cytotoxicity
- reduction in cell viability (MTT) (Caki-1 cells [2]; Caki-1, 5 μM, first batch): the greatest
- cell viability of treated cells (summary statement) (Caki-1 cells [2]): particularly low cell viability; also recorded: significantly reduced cell viability

Structure (SMILES): Cc1cnc(Nc2ccc(C(=O)Nc3cccc(S(=O)(=O)NC(C)(C)C)c3)cc2)nc1Nc1cccc(S(=O)(=O)NC(C)(C)C)c1 [Compound M101D, N-(3-(N-(tert-butyl)sulfamoyl)phenyl)-4-((4-((3-(N-(tert-butyl)sulfamoyl)phenyl)amino)-5-methylpyrimidin-2-yl)amino)benzamide]
- cytotoxicity (LDH assay) (Caki-1 cells [1]; first batch): highest cytotoxicity
- Ranking, Cytotoxicity (%) (Caki-1 cells [1]): 1
- reduction in cell viability (MTT) (Caki-1 cells [2]; Caki-1, 5 μM, first batch): the greatest
- effect on cell viability (MTT) (Caki-1 cells [2]; Caki-1, 10 μM, first batch): greatest reduction of cell viability
- cell viability of treated cells (summary statement) (Caki-1 cells [2]): particularly low cell viability; also recorded: significantly reduced cell viability
